Test results: patent US12391648B2, “Pyridyloxy thioester derivative and preparation method therefor, herbicidal composition, and application” (Qingdao Kingagroot Chemical Compound Co., Ltd., priority 2018, dated 2025)

Assays:
Assay type in all cases: in vivo
[1] = tested on: rice (japonica rice); assay: Transplanted rice safety evaluation; conditions: 1000 g/ha, transplanted 3-leaf stage japonica rice, treated 5 days after transplantation, 21 days after treatment
Text: (§1) The activity level standard of harmful plants destruction (i. e. growth inhibition rate) is as follows: • Level 5: the growth inhibition rate is greater than 85%; • Level 4: the growth inhibition rate is equal to or greater than 60% and less than 85%; • Level 3: the growth inhibition rate is equal to or greater than 40% and less than 60%; • Level 2: the growth inhibition rate is equal to or greater than 20% and less than 40%; • Level 1: the growth inhibition rate is equal to or greater than 5% and less than 20%; • Level 0: the growth inhibition rate is less than 5%;
(§2) Transplanted rice safety evaluation and weed control effect evaluation in rice field:
In addition, the rice field soil that loaded into the 1/1,000,000 ha pot was leveled to keep water storage at 3-4 cm depth. The 3-leaf stage rice (japonica rice) was transplanted at 3 cm of transplanting depth the next day. The compound of the present invention was treated by the same way after 5 days of transplantation.
(§3) The fertility condition of Monochoria vaginalis 14 days and rice 21 days after the treatment of the compound of the invention with the naked eye.

[2] = tested on: Japonica rice; assay: Post-emergence test experiment (Table 4), crop safety; conditions: 600 g/ha active ingredient, plus water 450 kg/ha, after 3 weeks
Text: as §1
(§4) The above described growth inhibition rate is fresh weight inhibition rate.
(§5) Post-emergence test experiment: Monocotyledonous and dicotyledonous weed seeds and main crop seeds (i. e. wheat, corn, rice, soybean, cotton, oilseed, millet and sorghum.) were put into a plastic pot loaded with soil. Then covered with 0.5-2 cm soil, the seeds were allowed to grow in good greenhouse environment. The test plants were treated at 2-3 leaf stage 2 weeks after sowing. The test compounds of the invention were dissolved with acetone respectively, then added with tween-80, and using 1.5 liters per hectare of an emulsible concentrate of methyl oleate as a synergist, and diluted by certain amount of water to certain concentration. The solution was sprayed to the plants with a sprayer. Then the plants were cultured for 3 weeks in the greenhouse, and the experiment result of weed controlling effect after 3 weeks was listed in tables 3-4.
(§6) […] Echinochloa crusgalli and Cyperus iria were collected from Ningxia Hui Autonomous Region of China, which had evolved resistance to ALS inhibiting herbicides. • Control compound A:

[3] = tested on: Indica rice; assay: as above; conditions: 600 g/ha active ingredient, plus water 450 kg/ha, after 3 weeks
Text: as §1, §4, §5, §6

[4] = tested on: Monochoria vaginalis; assay: Weed control effect evaluation in rice field; conditions: 1000 g/ha, paddy water application at 0.5 leaf stage, 14 days after treatment, weeds resistant to pyrazosulfuron-ethyl and penoxsulam
Text: as §1, §2
Rice field soil was loaded into a 1/1,000,000 ha pot. The seeds of Monochoria vaginalis were sowed and gently covered with soil, then left to stand still in greenhouse in the state of 0.5-1 cm of water storage. It was kept at 3-4 cm of water storage thereafter. The weeds were treated by dripping the WP or SC water diluents prepared according to the common preparation method of the compounds of the present invention with pipette homogeneously to achieve specified effective amount when Monochoria vaginalis reached 0. 5 leaf stage.
as §3
Note: The seeds of Monochoria vaginalis were collected from Heilongjing Province of China.

[5] = tested on: Abutilon theophrasti; assay: Post-emergence test experiment (Table 3, 1000 g/ha); conditions: post-emergence spray, after 3 weeks, fresh weight inhibition
In short: (§7)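 Activity graded levels 0-5 by fresh-weight inhibition (level 5 above 85%, level 0 below 5%), assessed 3 weeks after treatment. Plants grown in greenhouse pots were sprayed post-emergence at 2-3 leaves using acetone/tween-80 solutions with methyl oleate synergist (1.5 L/ha).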

[6] = tested on: Leptochloa chinensis; assay: as above; conditions: post-emergence spray, after 3 weeks, fresh weight inhibition
In short: as §7

[7] = tested on: Digitaria sanguinalis; assay: as above; conditions: post-emergence spray, after 3 weeks, fresh weight inhibition
In short: as §7

[8] = tested on: Setaria viridis; assay: as above; conditions: post-emergence spray, after 3 weeks, fresh weight inhibition
In short: as §7

[9] = tested on: Galium spurium; assay: as above; conditions: post-emergence spray, after 3 weeks, fresh weight inhibition
In short: as §7

[10] = tested on: Monochoria vaginalis; assay: as above; conditions: post-emergence spray, after 3 weeks, fresh weight inhibition
In short: as §7

[11] = tested on: ALS resistant Cyperus iria; assay: Post-emergence test experiment (Table 4), weed control; conditions: 600 g/ha active ingredient, plus water 450 kg/ha, after 3 weeks
Text: as §1, §4, §5, §6

[12] = tested on: ALS resistant Echinochloa crusgalli; assay: as above; conditions: 600 g/ha active ingredient, plus water 450 kg/ha, after 3 weeks
Text: as §1, §4, §5, §6

Row | Structure (SMILES) | Rice, activity standard level 0-5 (safety) [1] | Japonica rice, activity level (growth inhibition rate) [2] | Indica rice, activity level (growth inhibition rate) [3] | Monochoria Vaginalis, activity standard level 0-5 [4] | Activity level (growth inhibition rate) Abutilon theophrasti [5] | Activity level (growth inhibition rate) Leptochloa chinensis [6] | Activity level (growth inhibition rate) Digitaria sanguinalis [7] | Activity level (growth inhibition rate) Setaria viridis [8] | Activity level (growth inhibition rate) Galium spurium [9] | Activity level (growth inhibition rate) Monochoria Vaginalis [10] | ALS resistant Cyperus iria, activity level (growth inhibition rate) [11] | ALS resistant Echinochloa crusgalli, activity level (growth inhibition rate) [12]
1 | COCCCSC(=O)C(C)Oc1nc(F)c(Cl)c(N)c1Cl (stereo not drawn) [Compound 88] | 0 (Level 0: the growth inhibition rate is less than 5%) | 0 (Level 0: the growth inhibition rate is less than 5%) | 0 (Level 0: the growth inhibition rate is less than 5%) | 5 (Level 5: the growth inhibition rate is greater than 85%) | 5 (Level 5: the growth inhibition rate is greater than 85%) | 5 (Level 5: the growth inhibition rate is greater than 85%) | 5 (Level 5: the growth inhibition rate is greater than 85%) | 5 (Level 5: the growth inhibition rate is greater than 85%) | 5 (Level 5: the growth inhibition rate is greater than 85%) | 5 (Level 5: the growth inhibition rate is greater than 85%) | 5 (Level 5: the growth inhibition rate is greater than 85%) | 5 (Level 5: the growth inhibition rate is greater than 85%)
2 | COC(=O)OC(C)SC(=O)C(C)Oc1nc(F)c(Cl)c(N)c1Cl (stereo not drawn) [Compound 98] | 0 (Level 0: the growth inhibition rate is less than 5%) | 0 (Level 0: the growth inhibition rate is less than 5%) | 0 (Level 0: the growth inhibition rate is less than 5%) | 5 (Level 5: the growth inhibition rate is greater than 85%) | 5 (Level 5: the growth inhibition rate is greater than 85%) | 5 (Level 5: the growth inhibition rate is greater than 85%) | 5 (Level 5: the growth inhibition rate is greater than 85%) | 5 (Level 5: the growth inhibition rate is greater than 85%) | 5 (Level 5: the growth inhibition rate is greater than 85%) | 5 (Level 5: the growth inhibition rate is greater than 85%) | 5 (Level 5: the growth inhibition rate is greater than 85%) | 5 (Level 5: the growth inhibition rate is greater than 85%)
3 | CCCCC(CC)CSC(=O)C(C)Oc1nc(F)c(Cl)c(N)c1Cl (stereo not drawn) [Compound 74] | 0 (Level 0: the growth inhibition rate is less than 5%) | 0 (Level 0: the growth inhibition rate is less than 5%) | 0 (Level 0: the growth inhibition rate is less than 5%) | 5 (Level 5: the growth inhibition rate is greater than 85%) | 5 (Level 5: the growth inhibition rate is greater than 85%) | 5 (Level 5: the growth inhibition rate is greater than 85%) | 5 (Level 5: the growth inhibition rate is greater than 85%) | 5 (Level 5: the growth inhibition rate is greater than 85%) | 5 (Level 5: the growth inhibition rate is greater than 85%) | 5 (Level 5: the growth inhibition rate is greater than 85%) | 5 (Level 5: the growth inhibition rate is greater than 85%) | 5 (Level 5: the growth inhibition rate is greater than 85%)
4 | CSC(=O)C(C)Oc1ncc(Cl)c(N)c1Cl (stereo not drawn) [Compound 3] | 0 (Level 0: the growth inhibition rate is less than 5%) | 0 (Level 0: the growth inhibition rate is less than 5%) | 0 (Level 0: the growth inhibition rate is less than 5%) | 5 (Level 5: the growth inhibition rate is greater than 85%) | 5 (Level 5: the growth inhibition rate is greater than 85%) | 5 (Level 5: the growth inhibition rate is greater than 85%) | 5 (Level 5: the growth inhibition rate is greater than 85%) | 5 (Level 5: the growth inhibition rate is greater than 85%) | 5 (Level 5: the growth inhibition rate is greater than 85%) | 5 (Level 5: the growth inhibition rate is greater than 85%) | 5 (Level 5: the growth inhibition rate is greater than 85%) | 5 (Level 5: the growth inhibition rate is greater than 85%)
5 | CCCCOCCSC(=O)C(C)Oc1nc(F)c(Cl)c(N)c1Cl (stereo not drawn) [Compound 87] | 0 (Level 0: the growth inhibition rate is less than 5%) | 0 (Level 0: the growth inhibition rate is less than 5%) | 0 (Level 0: the growth inhibition rate is less than 5%) | 5 (Level 5: the growth inhibition rate is greater than 85%) | 5 (Level 5: the growth inhibition rate is greater than 85%) | 5 (Level 5: the growth inhibition rate is greater than 85%) | 5 (Level 5: the growth inhibition rate is greater than 85%) | 5 (Level 5: the growth inhibition rate is greater than 85%) | 5 (Level 5: the growth inhibition rate is greater than 85%) | 5 (Level 5: the growth inhibition rate is greater than 85%) | 5 (Level 5: the growth inhibition rate is greater than 85%) | 5 (Level 5: the growth inhibition rate is greater than 85%)
6 | CC(C)=NOCCSC(=O)C(C)Oc1nc(F)c(Cl)c(N)c1Cl (stereo not drawn) [Compound 97] | 0 (Level 0: the growth inhibition rate is less than 5%) | 0 (Level 0: the growth inhibition rate is less than 5%) | 0 (Level 0: the growth inhibition rate is less than 5%) | 5 (Level 5: the growth inhibition rate is greater than 85%) | 5 (Level 5: the growth inhibition rate is greater than 85%) | 5 (Level 5: the growth inhibition rate is greater than 85%) | 5 (Level 5: the growth inhibition rate is greater than 85%) | 5 (Level 5: the growth inhibition rate is greater than 85%) | 5 (Level 5: the growth inhibition rate is greater than 85%) | 5 (Level 5: the growth inhibition rate is greater than 85%) | 5 (Level 5: the growth inhibition rate is greater than 85%) | 5 (Level 5: the growth inhibition rate is greater than 85%)
